Assay results reported in the supplement of paper PMC11061612.

Assays:
Lapatinib = compound: CS(=O)(=O)CCNCc1ccc(-c2ccc3ncnc(Nc4ccc(OCc5cccc(F)c5)c(Cl)c4)c3c2)o1 [Lapatinib]; details: max 10 µM
Procedure, shortened: (§1)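 Cancer cell lines in 1536-well plates (7.5 μl DMEM/F12 or RPMI, 10% FBS) were held 24 hours at 37°C and 5% CO2 and then dosed for 72 hours at a final DMSO of typically 0.2%. Viability was taken from CellTiter-Glo 2.0 luminescence, scaled between blank-well and DMSO-well means. Curves were fitted as two-parameter logistic models with a non-linear mixed effects model, from which the single-agent IC50 was taken.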

Dasatinib = compound: CC1=C(C(=CC=C1)Cl)NC(=O)C2=CN=C(S2)NC3=CC(=NC(=N3)C)N4CCN(CC4)CCO [Dasatinib]; details: max 2 µM
Procedure, shortened: as §1

AZD2811 = compound: CCN(CCO)CCCOc1ccc2c(Nc3cc(CC(=O)Nc4cccc(F)c4)[nH]n3)ncnc2c1 [AZD2811]; details: max 1 µM
Procedure, shortened: as §1

SG3199 = compound: CC1=CN2[C@@H](C1)C=NC3=CC(=C(C=C3C2=O)OC)OCCCCCOC4=C(C=C5C(=C4)N=C[C@@H]6CC(=CN6C5=O)C)OC [SG3199]; details: max 0.001 µM
Procedure, shortened: as §1

AZD0156 = compound: CN(C)CCCOc1ccc(-c2ccc3ncc4c(c3c2)n(C2CCOCC2)c(=O)n4C)cn1 [AZD0156]; details: max 3 µM
Procedure, shortened: as §1

Etoposide = compound: COc1cc([C@@H]2c3cc4c(cc3[C@@H](O[C@@H]3O[C@@H]5CO[C@@H](C)O[C@H]5[C@H](O)[C@H]3O)[C@H]3COC(=O)[C@H]23)OCO4)cc(OC)c1O [Etoposide]; details: max 10 µM
Procedure, shortened: as §1

SN-38 = compound: CCc1c2c(nc3ccc(O)cc13)-c1cc3c(c(=O)n1C2)COC(=O)[C@]3(O)CC [SN-38]; details: max 0.3 µM
Procedure, shortened: as §1

MK-2206 = compound: NC1(c2ccc(-c3nc4ccn5c(=O)[nH]nc5c4cc3-c3ccccc3)cc2)CCC1 [MK-2206]; details: max 10 µM
Procedure, shortened: as §1

Selumetinib = compound: Cn1cnc2c(F)c(Nc3ccc(Br)cc3Cl)c(C(=O)NOCCO)cc21 [Selumetinib]; details: max 10 µM
Procedure, shortened: as §1

Doxorubicin = compound: COc1cccc2c1C(=O)c1c(O)c3c(c(O)c1C2=O)C[C@@](O)(C(=O)CO)C[C@@H]3O[C@H]1C[C@H](N)[C@H](O)[C@H](C)O1 [Doxorubicin]; details: max 1 µM
Procedure, shortened: as §1

AZD7648 = compound: Cc1cc2ncnn2cc1Nc1ncc2c(n1)n(C1CCOCC1)c(=O)n2C [AZD7648]; details: max 10 µM
Procedure, shortened: as §1

AZD5153 = compound: COc1nnc2ccc(N3CCC(c4ccc(OCCN5CCN(C)C(=O)[C@H]5C)cc4)CC3)nn12 [AZD5153]; details: max 1 µM
Procedure, shortened: as §1

Carboplatin = compound: C1CC(C1)(C(=O)[O-])C(=O)[O-].N.N.[Pt+2] [Carboplatin]; details: max 10 µM
Procedure, shortened: as §1

5-Fluorouracil = compound: O=c1[nH]cc(F)c(=O)[nH]1 [5-Fluorouracil]; details: max 20 µM
Procedure, shortened: as §1

Trametinib = compound: CC(=O)Nc1cccc(-n2c(=O)n(C3CC3)c(=O)c3c(Nc4ccc(I)cc4F)n(C)c(=O)c(C)c32)c1 [Trametinib]; details: max 1 µM
Procedure, shortened: as §1

[1] = compound: O=C(Nc1ccc2[nH]nc(-c3ccncc3)c2c1)[C@@H]1CCN(CC(=O)N2CCN(c3ccc(-c4ncccn4)cc3)CC2)C1; details: max 5 µM
Procedure, shortened: as §1

Paclitaxel = compound: CC(=O)O[C@H]1C(=O)[C@@]2(C)[C@H]([C@H](OC(=O)c3ccccc3)[C@]3(O)C[C@H](OC(=O)[C@H](O)[C@@H](NC(=O)c4ccccc4)c4ccccc4)C(C)=C1C3(C)C)[C@]1(OC(C)=O)CO[C@@H]1C[C@@H]2O [Paclitaxel]; details: max 3 µM
Procedure, shortened: as §1

Venetoclax = compound: CC1(C)CCC(CN2CCN(c3ccc(C(=O)NS(=O)(=O)c4ccc(NCC5CCOCC5)c([N+](=O)[O-])c4)c(Oc4cnc5[nH]ccc5c4)c3)CC2)=C(c2ccc(Cl)cc2)C1 [Venetoclax]; details: max 1 µM
Procedure, shortened: as §1

Savolitinib = compound: C[C@@H](c1ccc2nccn2c1)n1nnc2ncc(-c3cnn(C)c3)nc21 [Savolitinib]; details: max 1 µM
Procedure, shortened: as §1

AZD5363 = compound: C1CN(CCC1(C(=O)N[C@@H](CCO)C2=CC=C(C=C2)Cl)N)C3=NC=NC4=C3C=CN4 [AZD5363]; details: max 10 µM
Procedure, shortened: as §1

AZD1390 = compound: CC(C)n1c(=O)n(C)c2cnc3cc(F)c(-c4ccc(OCCCN5CCCCC5)nc4)cc3c21 [AZD1390]; details: max 0.3 µM
Procedure, shortened: as §1

Gefitinib = compound: COc1cc2ncnc(Nc3ccc(F)c(Cl)c3)c2cc1OCCCN1CCOCC1 [Gefitinib]; details: max 10 µM
Procedure, shortened: as §1

AZD8186 = compound: C[C@@H](Nc1cc(F)cc(F)c1)c1cc(C(=O)N(C)C)cc2c(=O)cc(N3CCOCC3)oc12 [AZD8186]; details: max 10 µM
Procedure, shortened: as §1

AZD6738 = compound: C[C@@H]1COCCN1C2=NC(=NC(=C2)C3(CC3)[S@](=N)(=O)C)C4=C5C=CNC5=NC=C4 [AZD6738]; details: max 10 µM
Procedure, shortened: as §1

Palbociclib = compound: CC(=O)c1c(C)c2cnc(Nc3ccc(N4CCNCC4)cn3)nc2n(C2CCCC2)c1=O [Palbociclib]; details: max 10 µM
Procedure, shortened: as §1

Alisertib = compound: COc1cc(Nc2ncc3c(n2)-c2ccc(Cl)cc2C(c2c(F)cccc2OC)=NC3)ccc1C(=O)O [Alisertib]; details: max 10 µM
Procedure, shortened: as §1

Olaparib = compound: O=C(c1cc(Cc2n[nH]c(=O)c3ccccc23)ccc1F)N1CCN(C(=O)C2CC2)CC1 [Olaparib]; details: max 10 µM
Procedure, shortened: as §1

AZD1775 = compound: C=CCn1c(=O)c2cnc(Nc3ccc(N4CCN(C)CC4)cc3)nc2n1-c1cccc(C(C)(C)O)n1 [AZD1775]; details: max 3 µM
Procedure, shortened: as §1

SRA737 = compound: N#Cc1cnc(Nc2cc(NC[C@H]3CNCCO3)c(C(F)(F)F)cn2)cn1 [SRA737]; details: max 10 µM
Procedure, shortened: as §1

Taselisib = compound: Cc1nc(-c2cn3c(n2)-c2ccc(-c4cnn(C(C)(C)C(N)=O)c4)cc2OCC3)n(C(C)C)n1 [Taselisib]; details: max 10 µM
Procedure, shortened: as §1

AZD4320 = compound: CN(CC[C@H](CSC1=CC=CC=C1)NC2=C(C=C(C=C2)S(=O)(=O)NC(=O)C3=CC=C(C=C3)N4CCC(CC4)[C@H](C5=CC=CC=C5C6=CC=C(C=C6)Cl)O)S(=O)(=O)C(F)(F)F)CCO [AZD4320]; details: max 1 µM
Procedure, shortened: as §1

Gemcitabine = compound: Nc1ccn([C@@H]2O[C@H](CO)[C@@H](O)C2(F)F)c(=O)n1 [Gemcitabine]; details: max 0.3 µM
Procedure, shortened: as §1

Crizotinib = compound: C[C@@H](Oc1cc(-c2cnn(C3CCNCC3)c2)cnc1N)c1c(Cl)ccc(F)c1Cl [Crizotinib]; details: max 10 µM
Procedure, shortened: as §1

AZD5991 = compound: Cc1c2c(nn1C)CSCc1cc(n(C)n1)CSc1cc(c3ccccc3c1)OCCCc1c(C(=O)O)n(C)c3c-2c(Cl)ccc13 [AZD5991]; details: max 1 µM
Procedure, shortened: as §1

Prexasertib = compound: COc1cccc(OCCCN)c1-c1cc(Nc2cnc(C#N)cn2)n[nH]1 [Prexasertib]; details: max 1 µM
Procedure, shortened: as §1

Cell Line | IC50, cell viability 72 h (Lapatinib) | IC50, cell viability 72 h (Dasatinib) | IC50, cell viability 72 h (AZD2811) | IC50, cell viability 72 h (SG3199) | IC50, cell viability 72 h (AZD0156) | IC50, cell viability 72 h (Etoposide) | IC50, cell viability 72 h (SN-38) | IC50, cell viability 72 h (MK-2206) | IC50, cell viability 72 h (Selumetinib) | IC50, cell viability 72 h (Doxorubicin) | IC50, cell viability 72 h (AZD7648) | IC50, cell viability 72 h (AZD5153) | IC50, cell viability 72 h (Carboplatin) | IC50, cell viability 72 h (5-Fluorouracil) | IC50, cell viability 72 h (Trametinib) | IC50, cell viability 72 h [1] | IC50, cell viability 72 h (Paclitaxel) | IC50, cell viability 72 h (Venetoclax) | IC50, cell viability 72 h (Savolitinib) | IC50, cell viability 72 h (AZD5363) | IC50, cell viability 72 h (AZD1390) | IC50, cell viability 72 h (Gefitinib) | IC50, cell viability 72 h (AZD8186) | IC50, cell viability 72 h (AZD6738) | IC50, cell viability 72 h (Palbociclib) | IC50, cell viability 72 h (Alisertib) | IC50, cell viability 72 h (Olaparib) | IC50, cell viability 72 h (AZD1775) | IC50, cell viability 72 h (SRA737) | IC50, cell viability 72 h (Taselisib) | IC50, cell viability 72 h (AZD4320) | IC50, cell viability 72 h (Gemcitabine) | IC50, cell viability 72 h (Crizotinib) | IC50, cell viability 72 h (AZD5991) | IC50, cell viability 72 h (Prexasertib)
NCI-H3122 (Lung Adenocarcinoma) | > 10000 nM | > 2000 nM | > 1000 nM | > 1 nM | > 3000 nM | > 10000 nM | 17.7 nM | 7950 nM | 7820 nM | 237 nM | > 10000 nM | 612 nM | > 10000 nM | > 20000 nM | 58.9 nM | 958 nM | 9.01 nM | > 1000 nM | > 1000 nM | > 10000 nM | > 300 nM | > 10000 nM | > 10000 nM | 7460 nM | 2580 nM | > 10000 nM | > 10000 nM | > 3000 nM | > 10000 nM | 1080 nM | > 1000 nM | 32 nM | 323 nM | > 1000 nM | 315 nM
SJSA-1 (Osteosarcoma) | > 10000 nM | > 2000 nM | > 1000 nM | > 1 nM | > 3000 nM | > 10000 nM | 87.9 nM | > 10000 nM | > 10000 nM | > 1000 nM | > 10000 nM | 533 nM | > 10000 nM | > 20000 nM | > 1000 nM | > 5000 nM | 79.9 nM | > 1000 nM | > 1000 nM | > 10000 nM | > 300 nM | > 10000 nM | > 10000 nM | > 10000 nM | > 10000 nM | > 10000 nM | > 10000 nM | > 3000 nM | > 10000 nM | 4810 nM | > 1000 nM | 82.1 nM | > 10000 nM | > 1000 nM | 156 nM
